Assay results published in patent publication US10098937B2, “Peptides and combination of peptides for use in immunotherapy against various cancers” (immatics biotechnologies GmbH, priority 2015, dated 2018).

System: HLA-A*24
Experiment: MHC binding assay (UV-ligand exchange, β2m ELISA), HLA-A*24
Parameters: species or system human
Settings: peptide exchange yield, Table 21
Description: Candidate peptides for T cell based therapies according to the present invention were further tested for their MHC binding capacity (affinity). The individual peptide-MHC complexes were produced by UV-ligand exchange, where a UV-sensitive peptide is cleaved upon UV-irradiation, and exchanged with the peptide of interest as analyzed. Only peptide candidates that can effectively bind and stabilize the peptide-receptive MHC molecules prevent dissociation of the MHC complexes. To determine the yield of the exchange reaction, an ELISA was performed based on the detection of the light chain (β2m) of stabilized MHC complexes. The assay was performed as generally described in Rodenko et al. (Rodenko et al., 2006).
96 well MAXISorp plates (NUNC) were coated over night with 2 ug/ml streptavidin in PBS at room temperature, washed 4× and blocked forth at 37° C. in 2% BSA containing blocking buffer. Refolded HLA-A*02:01/MLA-001 monomers served as standards, covering the range of 15-500 ng/ml. Peptide-MHC monomers of the UV-exchange reaction were diluted 100 fold in blocking buffer. Samples were incubated for 1 h at 37° C., washed four times, incubated with 2 ug/ml HRP conjugated anti-β2m for 1 h at 37° C., washed again and detected with TMB solution that is stopped with […]. Absorption was measured at 450 nm. Candidate peptides that show a high exchange yield (preferably higher than 50%, most preferred higher than 75%) are generally preferred for a generation and production of antibodies or fragments thereof, and/or T cell receptors or fragments thereof, as they show sufficient avidity to the MHC molecules and prevent dissociation of the MHC complexes.

Q: For “160 (VYTLDIPVL; listed as Homo sapiens) [compound 160]”, which Peptide exchange is on record?
A: ++++ (> = 75% = ++++)

Q: With “161 (IYLVSIPEL; listed as Homo sapiens) [compound 161]” as the substance, how does the Peptide exchange read?
A: ++++ (> = 75% = ++++)

Q: Which Peptide exchange does the source give for “166 (YYVESGKLF; listed as Homo sapiens) [compound 166]” here?
A: ++++ (> = 75% = ++++)

Q: With “168 (KYQDILETI; listed as Homo sapiens) [compound 168]” as the substance, how does the Peptide exchange read?
A: ++++ (> = 75% = ++++)

Q: For “172 (TYTTVPRVAF; listed as Homo sapiens) [compound 172]”, which Peptide exchange is on record?
A: ++++ (> = 75% = ++++)

Q: “173 (IYSWILDHF; listed as Homo sapiens) [compound 173]” was tested. Which Peptide exchange did it give?
A: ++++ (> = 75% = ++++)

Q: With “175 (YYEVHKELF; listed as Homo sapiens) [compound 175]” as the substance, how does the Peptide exchange read?
A: ++++ (> = 75% = ++++)

Q: For “177 (VYPWLGALL; listed as Homo sapiens) [compound 177]”, which Peptide exchange is on record?
A: ++++ (> = 75% = ++++)

Q: With “179 (MYDSYWRQF; listed as Homo sapiens) [compound 179]” as the substance, how does the Peptide exchange read?
A: ++++ (> = 75% = ++++)

Q: How did the Peptide exchange turn out when “181 (LYLDIINLF; listed as Homo sapiens) [compound 181]” was run?
A: ++++ (> = 75% = ++++)

Q: Which Peptide exchange does the source give for “184 (VFQNFPLLF; listed as Homo sapiens) [compound 184]” here?
A: ++++ (> = 75% = ++++)

Q: For “186 (IFPQFLYQF; listed as Homo sapiens) [compound 186]”, which Peptide exchange is on record?
A: ++++ (> = 75% = ++++)

Q: For “187 (TYLRDQHFL; listed as Homo sapiens) [compound 187]”, which Peptide exchange is on record?
A: ++++ (> = 75% = ++++)

Q: How did the Peptide exchange turn out when “192 (SYALLTYMI; listed as Homo sapiens) [compound 192]” was run?
A: ++++ (> = 75% = ++++)

Q: With “193 (RFHPTPLLL; listed as Homo sapiens) [compound 193]” as the substance, how does the Peptide exchange read?
A: ++++ (> = 75% = ++++)

Q: Which Peptide exchange does the source give for “194 (EFGSLHLEFL; listed as Homo sapiens) [compound 194]” here?
A: + (<20% = +)

Q: For “195 (TYSVSFPMF; listed as Homo sapiens) [compound 195]”, which Peptide exchange is on record?
A: ++++ (> = 75% = ++++)

Q: With “202 (VYWDSAGAAHF; listed as Homo sapiens) [compound 202]” as the substance, how does the Peptide exchange read?
A: ++++ (> = 75% = ++++)

Q: Which Peptide exchange does the source give for “210 (IYTMIYRNL; listed as Homo sapiens) [compound 210]” here?
A: ++++ (> = 75% = ++++)

Q: With “211 (YYLEVGKTLI; listed as Homo sapiens) [compound 211]” as the substance, how does the Peptide exchange read?
A: ++++ (> = 75% = ++++)

Q: For “216 (QYSSVFKSL; listed as Homo sapiens) [compound 216]”, which Peptide exchange is on record?
A: ++++ (> = 75% = ++++)

Q: Which Peptide exchange does the source give for “217 (FFPPTRQMGLLF; listed as Homo sapiens) [compound 217]” here?
A: ++++ (> = 75% = ++++)

Q: How did the Peptide exchange turn out when “227 (IFLDYEAGTLSF; listed as Homo sapiens) [compound 227]” was run?
A: ++++ (> = 75% = ++++)

Q: For “228 (KYTSWYVAL; listed as Homo sapiens) [compound 228]”, which Peptide exchange is on record?
A: ++++ (> = 75% = ++++)

Q: “267 (KYMVYPQTF; listed as Homo sapiens) [compound 267]” was tested. Which Peptide exchange did it give?
A: ++++ (> = 75% = ++++)

Q: “271 (LYHDIFSRL; listed as Homo sapiens) [compound 271]” was tested. Which Peptide exchange did it give?
A: ++++ (> = 75% = ++++)

Q: “272 (QYLQDAYSF; listed as Homo sapiens) [compound 272]” was tested. Which Peptide exchange did it give?
A: ++++ (> = 75% = ++++)

Q: Which Peptide exchange does the source give for “274 (AYLHSHALI; listed as Homo sapiens) [compound 274]” here?
A: ++++ (> = 75% = ++++)

Q: “276 (VYGFQWRHF; listed as Homo sapiens) [compound 276]” was tested. Which Peptide exchange did it give?
A: ++++ (> = 75% = ++++)

Q: How did the Peptide exchange turn out when “277 (VYQGHTALL; listed as Homo sapiens) [compound 277]” was run?
A: ++++ (> = 75% = ++++)

Q: With “278 (RYISDQLFTNF; listed as Homo sapiens) [compound 278]” as the substance, how does the Peptide exchange read?
A: ++++ (> = 75% = ++++)

Q: Which Peptide exchange does the source give for “280 (RYPDNLKHLYL; listed as Homo sapiens) [compound 280]” here?
A: ++++ (> = 75% = ++++)
